Experimental findings from ChEMBL document CHEMBL5579808, “Development of 1,5-diarylpyrazoles as EGFR/JNK-2 dual inhibitors: design, synthesis, moleecular docking, and bioactivity evaluation” (Bioorg Med Chem Lett, 2024) are described below.

Structures are written as SMILES. pIC50: −log10 of the molar value. Activity calls are given as the source filed them. The calls are words filed in the database; no cut-off is given here. Bounds are passed on as bounds.

For experiment [1], the system named is HeLa. Briefly: Growth inhibition of human HeLa cells at 100 uM by WST-8 assay relative to control. The experiment is classed as functional. The following applies: read-out: GI.
The test system of experiment [2] is DLD-1. The experiment in a line: Growth inhibition of human DLD-1 cells at 100 uM by WST-8 assay relative to control. Type of experiment: functional. As to conditions: read-out: GI.
The test system of experiment [3] is K562. Briefly: Growth inhibition of human K562 cells at 100 uM by WST-8 assay relative to control. Type of experiment: functional. As to conditions: read-out: GI.
Experiment [4] is described as follows: Growth inhibition of human SUIT-2 cells at 100 uM by WST-8 assay relative to control. The experiment is classed as functional. As to conditions: read-out: GI.
Experiment [5] concerns HepG2. The experiment in a line: Growth inhibition of human HepG2 cells at 100 uM by WST-8 assay relative to control. The experiment is classed as functional. The following applies: read-out: GI.
Experiment [6] relates to DLD-1. The experiment in a line: Antiproliferative activity against human DLD-1 cells by WST-8 assay. Type of experiment: functional, cell-based.
The subject of experiment [7] is K562. Briefly: Antiproliferative activity against human K562 cells by WST-8 assay. The experiment is classed as functional, cell-based.
Experiment [8] is described as follows: Antiproliferative activity against human SUIT-2 cells by WST-8 assay. The experiment is classed as functional, cell-based.
The subject of experiment [9] is HeLa. Briefly: Antiproliferative activity against human HeLa cells by WST-8 assay. The experiment is classed as functional, cell-based.
The subject of experiment [10] is HeLa. The experiment in a line: Induction of cell cycle arrest at G1 phase in human HeLa cells at IC50 incubated for 24 hrs by PI staining based flow cytometry (reference value: 68 %). Type of experiment: functional.
Experiment [11] has as its system HeLa. Briefly: Induction of cell cycle arrest at S phase in human HeLa cells at IC50 incubated for 24 hrs by PI staining based flow cytometry (reference value: 8 %). Type of experiment: functional.
Experiment [12] has as its system HeLa. Briefly: Induction of cell cycle arrest at G2 phase in human HeLa cells at IC50 incubated for 24 hrs by PI staining based flow cytometry (reference value: 7 %). Type of experiment: functional.
The test system of experiment [13] is HeLa. Briefly: Induction of apoptosis in human HeLa cells assessed as total cells at 2 times IC50 incubated for 24 hrs by Annexin V-FITC/PI staining based flow cytometry (reference value: 1.8 %). The experiment is classed as functional.
Experiment [14] has as its system HeLa. Briefly: Induction of apoptosis in human HeLa cells assessed as early apoptotic cells at 2 times IC50 incubated for 24 hrs by Annexin V-FITC/PI staining based flow cytometry (reference value: 0 %). The experiment is classed as functional.
Experiment [15] concerns HeLa. The experiment in a line: Induction of apoptosis in human HeLa cells assessed as late apoptotic cells at 2 times IC50 incubated for 24 hrs by Annexin V-FITC/PI staining based flow cytometry (reference value: 0 %). The experiment is classed as functional.
Experiment [16] deals with HeLa. Briefly: Induction of apoptosis in human HeLa cells assessed as necrotic cells at 2 times IC50 incubated for 24 hrs by Annexin V-FITC/PI staining based flow cytometry (reference value: 1.8 %). The experiment is classed as functional.
For experiment [17], the target named is Epidermal growth factor receptor (Mus musculus, UniProt Q01279). Briefly: Inhibition of recombinant mouse EGFR by ELISA.
Epidermal growth factor receptor, sequence (Q01279 whole entry): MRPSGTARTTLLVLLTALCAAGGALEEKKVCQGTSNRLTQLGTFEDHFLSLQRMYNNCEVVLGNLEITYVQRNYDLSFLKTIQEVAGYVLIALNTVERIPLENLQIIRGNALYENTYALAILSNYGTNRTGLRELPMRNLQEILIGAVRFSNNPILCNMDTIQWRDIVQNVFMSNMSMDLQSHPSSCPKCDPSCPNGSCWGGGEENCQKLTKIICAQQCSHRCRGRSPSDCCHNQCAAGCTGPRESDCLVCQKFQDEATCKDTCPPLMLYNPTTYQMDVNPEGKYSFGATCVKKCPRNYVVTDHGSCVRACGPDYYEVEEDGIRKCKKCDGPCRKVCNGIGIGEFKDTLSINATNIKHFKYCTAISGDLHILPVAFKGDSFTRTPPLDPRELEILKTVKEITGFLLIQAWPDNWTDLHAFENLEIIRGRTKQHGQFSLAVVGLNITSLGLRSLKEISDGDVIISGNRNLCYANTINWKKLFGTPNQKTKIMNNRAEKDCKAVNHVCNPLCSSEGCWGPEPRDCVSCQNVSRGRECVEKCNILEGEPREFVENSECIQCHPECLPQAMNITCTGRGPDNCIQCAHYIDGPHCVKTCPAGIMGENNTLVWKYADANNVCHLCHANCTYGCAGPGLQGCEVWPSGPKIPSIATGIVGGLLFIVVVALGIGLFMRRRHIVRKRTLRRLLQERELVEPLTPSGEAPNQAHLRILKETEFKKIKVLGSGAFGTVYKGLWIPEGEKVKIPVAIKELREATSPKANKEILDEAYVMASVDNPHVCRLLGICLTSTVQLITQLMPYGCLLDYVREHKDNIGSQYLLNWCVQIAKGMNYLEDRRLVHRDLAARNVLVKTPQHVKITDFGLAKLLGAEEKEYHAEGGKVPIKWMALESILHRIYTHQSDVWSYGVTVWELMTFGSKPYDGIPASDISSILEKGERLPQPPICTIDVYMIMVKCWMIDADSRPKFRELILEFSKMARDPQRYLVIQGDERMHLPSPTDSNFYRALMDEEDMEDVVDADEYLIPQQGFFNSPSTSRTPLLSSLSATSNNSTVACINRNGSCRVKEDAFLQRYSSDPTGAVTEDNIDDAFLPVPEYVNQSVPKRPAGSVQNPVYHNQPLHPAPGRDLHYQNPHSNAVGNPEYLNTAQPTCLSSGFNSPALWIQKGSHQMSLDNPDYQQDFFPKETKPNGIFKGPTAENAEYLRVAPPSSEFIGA
Experiment [18] addresses Mitogen-activated protein kinase 9 (Homo sapiens, UniProt P45984). The experiment in a line: Inhibition of JNK2 (unknown origin) incubated for 90 mins by ELISA.
In experiment [19] the test system is HepG2. Briefly: Antiproliferative activity against human HepG2 cells by WST-8 assay. Type of experiment: functional, cell-based.

For the molecule `COc1cc(C=O)ccc1OC(=O)c1cc(-c2ccc(Cl)cc2)n(-c2ccc(S(N)(=O)=O)cc2)n1`, the inhibition of growth at 100 µM in the experiment on HeLa [1] was found to be 51%; with DLD-1 [2] it was 97%; in the experiment with K562 [3], 85%; in [4], 94%; in the experiment with HepG2 [5], 54%. Also, the pIC50 with DLD-1 [6] was 5.30; in the experiment on K562 [7] it was 4.77; in [8], 4.30.

In the case of `CS(=O)(=O)c1ccc(NC(=O)c2cc(-c3ccc(Cl)cc3)n(-c3ccccc3)n2)cc1`, the inhibition of growth at 100 µM in the experiment with HeLa [1] amounted to 101%; with DLD-1 [2] it was 98%; with K562 [3] it was 88%; in experiment [4], 94%; in the experiment on HepG2 [5] it was 50%. In addition, the pIC50 in the experiment on DLD-1 [6] is 5.24; in the experiment with HeLa [9], 4.80; with K562 [7], 4.66; in experiment [8] it was 4.60; in experiment [17], 5.77; in experiment [18] it was less than 3.70. Further, the Activity in the experiment with HeLa [10] worked out at 6%; in the experiment on HeLa [11], 82%; in the experiment with HeLa [12], 6%; with HeLa [13] it was 94%; in the experiment with HeLa [14] it was 1.4%; in the experiment on HeLa [15], 75%. Besides, in the experiment on HeLa [16], the Activity is 18%.

For the molecule `Cc1ccc(-c2cc(C(=O)Nc3ccc(S(C)(=O)=O)cc3)nn2-c2ccccc2)cc1`, the inhibition of growth at 100 µM in the experiment with HeLa [1] stood at 78%; in the experiment with DLD-1 [2], 87%; in the experiment on K562 [3] it was 58%; in experiment [4], 87%; with HepG2 [5], 94%. The pIC50 with DLD-1 [6] is 4.66; in the experiment with HeLa [9], 4.20; in the experiment on HepG2 [19] it was 5.00; in experiment [17], 3.96; in experiment [18], less than 3.70.

With `NS(=O)(=O)c1ccc(NC(=O)c2cc(-c3ccccc3)n(-c3ccccc3)n2)cc1`, the inhibition of growth at 100 µM amounted to 12% with HeLa [1]; 64% in the experiment on DLD-1 [2]; 89% in the experiment with K562 [3]; 91% in [4]; 107% with HepG2 [5]. In addition, the results for the pIC50 (in [8]; in the experiment with HepG2 [19]) were 4.74 and 5.23, respectively.

Regarding `COc1cc(C=O)ccc1OC(=O)c1cc(-c2ccccc2)n(-c2ccc(S(N)(=O)=O)cc2)n1`, the inhibition of growth at 100 µM with HeLa [1] is 79%; in the experiment with DLD-1 [2], 100%; with K562 [3] it was 82%; in experiment [4], 95%; in the experiment on HepG2 [5], 84%. Besides, the pIC50 is 4.57 in the experiment on HeLa [9], 4.76 with K562 [7] and 4.42 in the experiment on HepG2 [19].

Take `CS(=O)(=O)c1ccc(NC(=O)c2cc(-c3ccccc3)n(-c3ccccc3)n2)cc1`: the inhibition of growth at 100 µM was 28% in the experiment on HeLa [1]; 81% in the experiment on DLD-1 [2]; 32% in the experiment with K562 [3]; 86% in [4]; 41% in the experiment on HepG2 [5]. For the same molecule, the pIC50 in the experiment with DLD-1 [6] was 4.48.

Turning to `COc1cc(C=O)ccc1OC(=O)c1cc(-c2ccc(Cl)cc2)n(-c2ccccc2)n1`, the inhibition of growth at 100 µM came to 51% with HeLa [1]; 74% with DLD-1 [2]; 66% with K562 [3]; 92% in experiment [4]; 20% in the experiment with HepG2 [5].

As to `COc1ccc(-c2cc(C(=O)Nc3ccc(S(N)(=O)=O)cc3)nn2-c2ccccc2)cc1`, the inhibition of growth at 100 µM amounted to 74% in the experiment on HeLa [1]; 69% with DLD-1 [2]; 26% in the experiment on K562 [3]; 78% in [4]; 26% in the experiment on HepG2 [5].

In the case of `COc1cccc2c1C(=O)c1c(O)c3c(c(O)c1C2=O)C[C@@](O)(C(C)=O)C[C@@H]3O[C@H]1C[C@H](N)[C@H](O)[C@H](C)O1` [DAUNORUBICIN], the inhibition of growth at 100 µM with HeLa [1] stood at 100%; in the experiment with DLD-1 [2] it was 84.2%; in the experiment with K562 [3], 100%; in [4] it was 92%; with HepG2 [5], 100%. Further, the pIC50 is 4.52 with DLD-1 [6]; 7.00 in the experiment with HeLa [9]; 4.88 in the experiment on K562 [7]; 5.05 in experiment [8]; 4.66 with HepG2 [19].

For the molecule `CNC(=O)c1cc(Oc2ccc(NC(=O)Nc3ccc(Cl)c(C(F)(F)F)c3)cc2)ccn1` [SORAFENIB], the pIC50 in [17] is 5.46.

As to `COc1cc(C=O)ccc1OC(=O)c1cc(-c2ccccc2)n(-c2ccccc2)n1`, the inhibition of growth at 100 µM in the experiment on HeLa [1] was 31%; in the experiment with DLD-1 [2], 71%; with K562 [3], 52%; in experiment [4], 91%; in the experiment on HepG2 [5], 60%.

Regarding `COc1ccc(-c2cc(C(=O)Oc3ccc(C=O)cc3OC)nn2-c2ccccc2)cc1OC`, the inhibition of growth at 100 µM with HeLa [1] amounted to 0%; with DLD-1 [2], 96%; with K562 [3], 58%; in experiment [4], 86%; in the experiment with HepG2 [5] it was 74%.

As for `COc1ccc(-c2cc(C(=O)Oc3ccc(C=O)cc3OC)nn2-c2ccc(S(N)(=O)=O)cc2)cc1`, the inhibition of growth at 100 µM with HeLa [1] amounted to 78%; with DLD-1 [2] it was 104%; with K562 [3] it was 85%; in [4], 95%; with HepG2 [5], 82%. The pIC50 in the experiment with DLD-1 [6] is 5.25; in the experiment on HeLa [9], 4.51; in the experiment with K562 [7], 4.83; in experiment [8], 5.30; with HepG2 [19], 5.11; in experiment [17] it was less than 3.00. In experiment [18], this molecule had a pIC50 of 6.05.

Turning to `COc1ccc(-c2cc(C(=O)Nc3ccc(S(N)(=O)=O)cc3)nn2-c2ccccc2)cc1OC`, the inhibition of growth at 100 µM with HeLa [1] is 51%; in the experiment with DLD-1 [2] it was 56%; with K562 [3], 58%; in experiment [4], 91%; with HepG2 [5] it was 90%.

As for `COc1ccc(-c2cc(C(=O)Nc3ccc(S(C)(=O)=O)cc3)nn2-c2ccccc2)cc1`, the inhibition of growth at 100 µM with HeLa [1] came to 76%; with DLD-1 [2] it was 64%; in the experiment with K562 [3] it was 41%; in experiment [4] it was 90%; in the experiment on HepG2 [5], 62%. The pIC50 in [8] is 4.39.

For `COc1ccc(-c2cc(C(=O)Oc3ccc(C=O)cc3OC)nn2-c2ccc(S(N)(=O)=O)cc2)cc1OC`, the inhibition of growth at 100 µM stood at 70% with HeLa [1]; 75% with DLD-1 [2]; 77% in the experiment with K562 [3]; 66% in [4]; 92% in the experiment with HepG2 [5].

As to `COc1ccc(-c2cc(C(=O)Nc3ccc(S(C)(=O)=O)cc3)nn2-c2ccccc2)cc1OC`, the inhibition of growth at 100 µM in the experiment on HeLa [1] worked out at 19%; with DLD-1 [2], 74%; with K562 [3], 62%; in experiment [4], 89%; in the experiment with HepG2 [5], 37%.

For `COc1ccc(-c2cc(C(=O)Oc3ccc(C=O)cc3OC)nn2-c2ccccc2)cc1`, the inhibition of growth at 100 µM in the experiment with HeLa [1] is 30%; in the experiment with DLD-1 [2], 61%; in the experiment with K562 [3] it was 61%; in experiment [4], 91%; in the experiment with HepG2 [5], 11%.

With `NS(=O)(=O)c1ccc(NC(=O)c2cc(-c3ccc(Cl)cc3)n(-c3ccccc3)n2)cc1`, the inhibition of growth at 100 µM with HeLa [1] came to 0%; in the experiment on DLD-1 [2], 94%; in the experiment on K562 [3], 86%; in [4], 99%; in the experiment on HepG2 [5], 27%. The pIC50 in the experiment with DLD-1 [6] was 4.53; with K562 [7] it was 4.81; in [8], 4.30; in experiment [17], 5.57; in experiment [18], 5.52.

As to `Cc1ccc(-c2cc(C(=O)Nc3ccc(S(N)(=O)=O)cc3)nn2-c2ccccc2)cc1`, the inhibition of growth at 100 µM with HeLa [1] came to 0%; with DLD-1 [2], 99%; in the experiment with K562 [3], 65%; in [4] it was 96%; in the experiment with HepG2 [5], 101%. In addition, the pIC50 with DLD-1 [6] was 4.79; in the experiment with HeLa [9], 4.78; in experiment [8], 4.89; with HepG2 [19], 5.44; in experiment [17], less than 3.00. For the same molecule, the inhibition entry in experiment [18] is “inactive”.
